Laboratory results from article PMC6429214, “Design, Synthesis and Biological Evaluation of Isoxazole-Based CK1 Inhibitors Modified with Chiral Pyrrolidine Scaffolds” (Molecules, 2019).

How the values were obtained:
Assay in all cases: 33PanQinase panel
Format in all cases: biochemical
[1] = molecular target: T1, BMX (Homo sapiens, UniProt P51813); conditions: read-out: Residual Activity (%)
T1 construct: purchased ProQinase
Summary of the method: (§1)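 Percent residual kinase activity versus DMSO control, from a radiometric 33PanQinase assay at 1 µM compound.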

[2] = molecular target: T2, CDC7/DBF4 (Homo sapiens, UniProt O00311); conditions: CDC7/DBF4, 1 µM; read-out: Residual Activity (%)
T2 construct: purchased ProQinase
Summary of the method: as §1

[3] = molecular target: T3, CHK1 (Homo sapiens, UniProt O14757); conditions: CHK1, 1 µM; read-out: Residual Activity (%)
T3 construct: purchased ProQinase
Summary of the method: as §1

[4] = molecular target: T4, CSK (Homo sapiens, UniProt P41240); conditions: read-out: Residual Activity (%)
T4 construct: purchased ProQinase
Summary of the method: as §1

[5] = molecular target: T5, VRK1 (Homo sapiens, UniProt Q99986); conditions: VRK1, 1 µM; read-out: Residual Activity (%)
T5 construct: purchased ProQinase
Summary of the method: as §1

[6] = molecular target: T6, CAMK4 (Homo sapiens, UniProt Q16566); conditions: CAMK4, 1 µM; read-out: Residual Activity (%)
T6 construct: purchased ProQinase
T6 sequence (Q16566 whole entry): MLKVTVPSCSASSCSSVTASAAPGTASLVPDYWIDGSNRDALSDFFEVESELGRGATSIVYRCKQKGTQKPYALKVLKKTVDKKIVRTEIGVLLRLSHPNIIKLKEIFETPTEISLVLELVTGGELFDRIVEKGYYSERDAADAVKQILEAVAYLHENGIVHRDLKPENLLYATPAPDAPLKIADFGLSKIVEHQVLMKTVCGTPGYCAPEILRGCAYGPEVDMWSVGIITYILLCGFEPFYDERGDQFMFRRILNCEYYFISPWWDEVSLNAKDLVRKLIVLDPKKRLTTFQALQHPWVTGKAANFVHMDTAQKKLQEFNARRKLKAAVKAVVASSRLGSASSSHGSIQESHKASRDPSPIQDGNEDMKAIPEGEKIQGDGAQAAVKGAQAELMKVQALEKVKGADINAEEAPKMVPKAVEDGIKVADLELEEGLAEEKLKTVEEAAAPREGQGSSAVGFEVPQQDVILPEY
Summary of the method: as §1

[7] = molecular target: T7, PDGFR-beta (Homo sapiens, UniProt P09619); conditions: read-out: Residual Activity (%)
T7 construct: purchased ProQinase
Summary of the method: as §1

[8] = molecular target: T8, ALK (GST-HIS-tag) (Homo sapiens, UniProt Q9UM73); conditions: read-out: Residual Activity (%)
T8 construct: purchased ProQinase
T8 sequence (Q9UM73 19-1620): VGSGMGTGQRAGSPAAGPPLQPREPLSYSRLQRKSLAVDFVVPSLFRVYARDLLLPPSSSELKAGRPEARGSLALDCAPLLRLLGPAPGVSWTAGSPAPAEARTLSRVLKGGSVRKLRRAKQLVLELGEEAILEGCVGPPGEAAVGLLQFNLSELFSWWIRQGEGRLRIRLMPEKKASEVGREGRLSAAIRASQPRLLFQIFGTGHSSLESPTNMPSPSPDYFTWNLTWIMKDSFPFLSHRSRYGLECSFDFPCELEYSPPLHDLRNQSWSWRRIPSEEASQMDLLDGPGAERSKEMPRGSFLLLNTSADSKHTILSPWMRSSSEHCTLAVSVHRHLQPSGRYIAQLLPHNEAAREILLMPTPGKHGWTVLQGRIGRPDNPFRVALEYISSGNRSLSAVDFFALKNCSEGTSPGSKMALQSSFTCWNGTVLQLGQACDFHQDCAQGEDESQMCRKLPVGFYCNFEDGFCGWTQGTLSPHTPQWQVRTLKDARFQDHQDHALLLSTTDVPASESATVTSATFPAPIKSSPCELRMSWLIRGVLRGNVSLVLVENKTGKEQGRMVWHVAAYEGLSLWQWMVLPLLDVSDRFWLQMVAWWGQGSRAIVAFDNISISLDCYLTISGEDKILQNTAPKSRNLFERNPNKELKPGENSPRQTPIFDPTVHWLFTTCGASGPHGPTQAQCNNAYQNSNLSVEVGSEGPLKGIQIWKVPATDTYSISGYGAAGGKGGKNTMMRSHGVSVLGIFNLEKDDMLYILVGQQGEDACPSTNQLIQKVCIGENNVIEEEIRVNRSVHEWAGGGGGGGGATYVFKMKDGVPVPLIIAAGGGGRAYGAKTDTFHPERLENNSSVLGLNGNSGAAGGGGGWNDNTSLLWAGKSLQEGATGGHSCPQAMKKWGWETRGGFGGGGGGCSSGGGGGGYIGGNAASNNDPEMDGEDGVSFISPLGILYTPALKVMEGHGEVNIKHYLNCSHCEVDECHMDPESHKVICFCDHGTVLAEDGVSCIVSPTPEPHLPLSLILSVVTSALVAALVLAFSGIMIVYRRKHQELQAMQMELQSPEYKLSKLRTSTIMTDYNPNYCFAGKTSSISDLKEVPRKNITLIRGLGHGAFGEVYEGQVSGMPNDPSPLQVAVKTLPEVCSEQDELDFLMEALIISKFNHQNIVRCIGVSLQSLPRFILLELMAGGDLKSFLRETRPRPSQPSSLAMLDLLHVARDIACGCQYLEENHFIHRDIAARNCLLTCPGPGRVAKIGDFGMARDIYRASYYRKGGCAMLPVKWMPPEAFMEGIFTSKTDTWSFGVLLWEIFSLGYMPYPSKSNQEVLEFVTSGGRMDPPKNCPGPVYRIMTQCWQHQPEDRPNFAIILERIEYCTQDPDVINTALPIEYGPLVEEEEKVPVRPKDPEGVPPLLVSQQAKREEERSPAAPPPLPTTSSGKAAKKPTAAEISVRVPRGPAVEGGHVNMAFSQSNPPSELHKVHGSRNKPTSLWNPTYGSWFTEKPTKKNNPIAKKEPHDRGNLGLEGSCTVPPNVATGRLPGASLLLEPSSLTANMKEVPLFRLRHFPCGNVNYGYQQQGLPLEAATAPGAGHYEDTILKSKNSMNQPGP
Summary of the method: as §1

[9] = molecular target: T9, ZAK (Homo sapiens, UniProt Q9NYL2); conditions: read-out: Residual Activity (%)
T9 construct: purchased ProQinase
Summary of the method: as §1

[10] = molecular target: T10, FGR (Homo sapiens, UniProt P09769); conditions: read-out: Residual Activity (%)
T10 construct: purchased ProQinase
T10 sequence (P09769 whole entry): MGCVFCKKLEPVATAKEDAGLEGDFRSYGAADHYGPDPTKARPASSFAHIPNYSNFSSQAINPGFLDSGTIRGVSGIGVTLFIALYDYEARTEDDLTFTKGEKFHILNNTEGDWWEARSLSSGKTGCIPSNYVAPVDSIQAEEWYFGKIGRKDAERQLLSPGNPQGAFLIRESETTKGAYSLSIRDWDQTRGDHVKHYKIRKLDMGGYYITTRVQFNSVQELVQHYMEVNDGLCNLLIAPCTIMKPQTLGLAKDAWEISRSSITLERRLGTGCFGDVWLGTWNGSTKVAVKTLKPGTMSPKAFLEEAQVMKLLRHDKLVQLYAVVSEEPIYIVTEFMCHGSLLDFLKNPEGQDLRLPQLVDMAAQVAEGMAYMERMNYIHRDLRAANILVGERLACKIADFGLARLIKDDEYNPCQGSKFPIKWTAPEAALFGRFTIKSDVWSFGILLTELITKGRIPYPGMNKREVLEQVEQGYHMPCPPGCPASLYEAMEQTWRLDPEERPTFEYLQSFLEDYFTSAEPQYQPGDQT
Summary of the method: as §1

[11] = molecular target: T11, ROS (Homo sapiens, UniProt P08922); conditions: read-out: Residual Activity (%)
T11 construct: purchased ProQinase
Summary of the method: as §1

[12] = molecular target: T12, SRPK1 (Homo sapiens, UniProt Q96SB4); conditions: SRPK1, 1 µM; read-out: Residual Activity (%)
T12 construct: purchased ProQinase
Summary of the method: as §1

[13] = molecular target: T13, AKT2 aa107-481 (Homo sapiens, UniProt P31751); conditions: AKT2 aa107-481, 1 µM; read-out: Residual Activity (%)
T13 construct: purchased ProQinase
Summary of the method: as §1

[14] = molecular target: T14, FYN (Homo sapiens, UniProt P06241); conditions: read-out: Residual Activity (%)
T14 construct: purchased ProQinase
Summary of the method: as §1

[15] = molecular target: T15, B-RAF (Homo sapiens, UniProt P15056); conditions: read-out: Residual Activity (%)
T15 construct: purchased ProQinase
Summary of the method: as §1

[16] = molecular target: T16, IGF1-R (Homo sapiens, UniProt P08069); conditions: read-out: Residual Activity (%)
T16 construct: purchased ProQinase
Summary of the method: as §1

[17] = molecular target: T17, DYRK1A (Homo sapiens, UniProt Q13627); conditions: read-out: Residual Activity (%)
T17 construct: purchased ProQinase
Summary of the method: as §1

[18] = molecular target: T18, ACV-RL1 (Homo sapiens, UniProt P37023); conditions: ACV-RL1, 1 µM; read-out: Residual Activity (%)
T18 construct: purchased ProQinase
T18 sequence (P37023 22-503): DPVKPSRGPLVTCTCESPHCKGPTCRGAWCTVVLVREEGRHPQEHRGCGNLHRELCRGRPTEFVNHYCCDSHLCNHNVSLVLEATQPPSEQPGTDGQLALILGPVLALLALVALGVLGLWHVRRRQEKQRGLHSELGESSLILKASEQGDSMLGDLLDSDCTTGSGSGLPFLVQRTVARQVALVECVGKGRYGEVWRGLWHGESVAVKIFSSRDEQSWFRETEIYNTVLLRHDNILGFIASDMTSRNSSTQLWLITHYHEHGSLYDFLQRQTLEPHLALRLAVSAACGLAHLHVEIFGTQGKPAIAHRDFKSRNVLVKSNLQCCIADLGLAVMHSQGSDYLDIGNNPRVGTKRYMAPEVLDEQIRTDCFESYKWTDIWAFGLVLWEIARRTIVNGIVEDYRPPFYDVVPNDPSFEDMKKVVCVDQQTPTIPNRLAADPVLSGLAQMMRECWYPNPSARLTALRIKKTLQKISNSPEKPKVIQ
Summary of the method: as §1

[19] = molecular target: T19, CK1-gamma2 (Homo sapiens, UniProt P78368); conditions: CK1-gamma2, 1 µM; read-out: Residual Activity (%)
T19 construct: purchased ProQinase
Summary of the method: as §1

[20] = molecular target: T20, PAK2 (Homo sapiens, UniProt Q13177); conditions: PAK2, 1 µM; read-out: Residual Activity (%)
T20 construct: purchased ProQinase
T20 sequence (Q13177 whole entry): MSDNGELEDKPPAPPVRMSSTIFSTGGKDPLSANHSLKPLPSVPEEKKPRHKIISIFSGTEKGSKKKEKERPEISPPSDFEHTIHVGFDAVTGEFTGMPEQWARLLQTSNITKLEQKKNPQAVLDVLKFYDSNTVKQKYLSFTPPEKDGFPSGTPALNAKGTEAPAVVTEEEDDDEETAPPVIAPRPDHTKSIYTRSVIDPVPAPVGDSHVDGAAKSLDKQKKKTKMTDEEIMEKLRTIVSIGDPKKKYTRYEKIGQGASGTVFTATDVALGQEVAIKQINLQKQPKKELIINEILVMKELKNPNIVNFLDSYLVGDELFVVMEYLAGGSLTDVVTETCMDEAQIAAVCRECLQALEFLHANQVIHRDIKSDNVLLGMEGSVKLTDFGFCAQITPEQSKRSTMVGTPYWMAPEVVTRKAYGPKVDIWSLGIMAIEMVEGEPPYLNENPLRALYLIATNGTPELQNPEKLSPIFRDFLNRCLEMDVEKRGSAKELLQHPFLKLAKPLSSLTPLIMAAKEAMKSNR
Summary of the method: as §1

[21] = molecular target: T21, NEK11 (Homo sapiens, UniProt Q8NG66); conditions: NEK11, 1 µM; read-out: Residual Activity (%)
T21 construct: purchased ProQinase
Summary of the method: as §1

[22] = molecular target: T22, ACV-R2A (Homo sapiens, UniProt P27037); conditions: read-out: Residual Activity (%)
T22 construct: purchased ProQinase
Summary of the method: as §1

[23] = molecular target: T23, KIT (Homo sapiens, UniProt P10721); conditions: read-out: Residual Activity (%)
T23 construct: purchased ProQinase
Summary of the method: as §1

[24] = molecular target: T24, CDK6/CycD1 (Homo sapiens, UniProt Q00534); conditions: CDK6/CycD1, 1 µM; read-out: Residual Activity (%)
T24 construct: purchased ProQinase
Summary of the method: as §1

[25] = molecular target: T25, MYLK2 (Homo sapiens, UniProt Q9H1R3); conditions: MYLK2, 1 µM; read-out: Residual Activity (%)
T25 construct: purchased ProQinase
T25 sequence (Q9H1R3 whole entry): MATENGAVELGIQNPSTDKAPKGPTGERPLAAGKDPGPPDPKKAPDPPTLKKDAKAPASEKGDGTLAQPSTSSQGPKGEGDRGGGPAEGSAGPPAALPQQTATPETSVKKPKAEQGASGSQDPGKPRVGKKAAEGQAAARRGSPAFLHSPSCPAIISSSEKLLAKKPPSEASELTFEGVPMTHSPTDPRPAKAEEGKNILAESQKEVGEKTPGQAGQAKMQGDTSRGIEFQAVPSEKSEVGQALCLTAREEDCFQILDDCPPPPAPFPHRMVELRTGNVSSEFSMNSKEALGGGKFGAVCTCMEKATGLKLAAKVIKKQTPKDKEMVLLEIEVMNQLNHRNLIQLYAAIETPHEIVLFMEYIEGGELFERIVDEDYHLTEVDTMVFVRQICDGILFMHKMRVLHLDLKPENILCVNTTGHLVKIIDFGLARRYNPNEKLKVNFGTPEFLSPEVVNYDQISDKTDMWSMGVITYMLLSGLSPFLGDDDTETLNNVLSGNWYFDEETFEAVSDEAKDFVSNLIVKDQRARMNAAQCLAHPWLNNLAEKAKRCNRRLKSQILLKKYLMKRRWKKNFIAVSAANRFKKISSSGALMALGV
Summary of the method: as §1

[26] = molecular target: T26, JAK3 (Homo sapiens, UniProt P52333); conditions: JAK3, 1 µM; read-out: Residual Activity (%)
T26 construct: purchased ProQinase
Summary of the method: as §1

[27] = molecular target: T27, MAPKAPK3 (Homo sapiens, UniProt Q16644); conditions: MAPKAPK3, 1 µM; read-out: Residual Activity (%)
T27 construct: purchased ProQinase
T27 sequence (Q16644 whole entry): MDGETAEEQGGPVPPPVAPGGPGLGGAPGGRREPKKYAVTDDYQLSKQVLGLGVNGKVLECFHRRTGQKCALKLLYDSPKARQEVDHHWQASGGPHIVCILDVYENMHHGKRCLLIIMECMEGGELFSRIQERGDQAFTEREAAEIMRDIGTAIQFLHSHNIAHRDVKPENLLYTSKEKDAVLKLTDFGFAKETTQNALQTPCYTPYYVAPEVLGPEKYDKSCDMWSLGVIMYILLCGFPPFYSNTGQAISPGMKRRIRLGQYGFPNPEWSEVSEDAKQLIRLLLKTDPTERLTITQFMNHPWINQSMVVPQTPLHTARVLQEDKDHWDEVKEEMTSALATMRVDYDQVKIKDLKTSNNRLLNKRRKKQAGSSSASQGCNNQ
Summary of the method: as §1

[28] = molecular target: T28, MEK5 (Homo sapiens, UniProt Q13163); conditions: MEK5, 1 µM; read-out: Residual Activity (%)
T28 construct: purchased ProQinase
T28 sequence (Q13163 whole entry): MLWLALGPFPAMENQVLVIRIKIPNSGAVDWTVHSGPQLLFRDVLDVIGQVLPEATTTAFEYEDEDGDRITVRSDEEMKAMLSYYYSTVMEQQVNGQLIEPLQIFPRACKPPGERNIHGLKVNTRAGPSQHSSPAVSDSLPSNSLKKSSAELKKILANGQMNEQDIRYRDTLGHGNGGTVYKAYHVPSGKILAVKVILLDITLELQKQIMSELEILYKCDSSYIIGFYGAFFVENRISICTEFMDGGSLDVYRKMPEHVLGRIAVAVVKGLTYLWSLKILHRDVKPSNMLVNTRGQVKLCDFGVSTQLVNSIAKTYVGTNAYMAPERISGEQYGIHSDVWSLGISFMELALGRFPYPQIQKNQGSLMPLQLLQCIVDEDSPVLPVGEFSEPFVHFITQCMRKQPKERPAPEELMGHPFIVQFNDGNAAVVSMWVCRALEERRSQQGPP
Summary of the method: as §1

[29] = molecular target: T29, VRK2 (Homo sapiens, UniProt Q86Y07); conditions: VRK2, 1 µM; read-out: Residual Activity (%)
T29 construct: purchased ProQinase
Summary of the method: as §1

[30] = molecular target: T30, FGF-R3 (Homo sapiens, UniProt P22607); conditions: FGF-R3, 1 µM; read-out: Residual Activity (%)
T30 construct: purchased ProQinase
Summary of the method: as §1

Work on `COc1ccc(-c2cc(C(=O)Nc3cc(-c4c(-c5ccc(F)cc5)noc4C(C)C)ccn3)n(CC3NCC(O)C3O)c2)cc1` (stereo not drawn) [29d] yielded a remaining activity at 1 µM [1] of 96%, a remaining activity at 1 µM [2] of 94% and a remaining activity at 1 µM [3] of 97%. The remaining activity at 1 µM [4] was 115%, the remaining activity at 1 µM [5] was 117% and the remaining activity at 1 µM [6] was 102%. The remaining activity at 1 µM [7] was 91%, the remaining activity at 1 µM [8] was 105% and the remaining activity at 1 µM [9] was 116%. For the same compound, the remaining activity at 1 µM [10] was 107%, the remaining activity at 1 µM [11] was 88% and the remaining activity at 1 µM [12] was 105%. For the same compound, the remaining activity at 1 µM [13] was 107%, the remaining activity at 1 µM [14] was 156% and the remaining activity at 1 µM [15] was 95%. For the same compound, the remaining activity at 1 µM [16] was 104%, the remaining activity at 1 µM [17] was 120% and the remaining activity at 1 µM [18] was 115%. For the same compound, the remaining activity at 1 µM [19] was 80%, the remaining activity at 1 µM [20] was 107% and the remaining activity at 1 µM [21] was 100%. It also gave a remaining activity at 1 µM [22] of 125%, a remaining activity at 1 µM [23] of 102% and a remaining activity at 1 µM [24] of 104%. It also gave a remaining activity at 1 µM [25] of 97%, a remaining activity at 1 µM [26] of 81% and a remaining activity at 1 µM [27] of 91%. The remaining activity at 1 µM [28] was 110%, the remaining activity at 1 µM [29] was 92% and the remaining activity at 1 µM [30] was 118%.
